# Assay results taken from patent publication US20090264415A2 (priority 2004, published 2009).
# Read-outs that look alike come from different tables or passages of the source.
# Key:
# [1] = test system: peripheral blood mononuclear cells (PBMC) stimulated with allogeneic PBMC or EBV-transformed human B cells (RPMI1788); assay: Mixed lymphocyte reaction (MLR) assay; type: cell-based
# Method in brief: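 Responder PBMC co-cultured in triplicate with 30 Gy-irradiated allogeneic PBMC or RPMI1788 B cells plus compound (DMSO stock 10 mM, diluted in medium). After 5 days at 37° C, 1 μCi [3H]-thymidine added for 16 h more; incorporated cpm counted and proliferation inhibition calculated.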
# [2] = test system: production of human TNF-α by PBMC in response to LPS; assay: TNF-α assay (LPS-stimulated PBMC, sandwich ELISA); type: cell-based; conditions: LPS 1 μg/ml, 72 hours, read-out: TNF α
# Method: Peripheral blood mononuclear cells (herein referred as PBMC), in response to stimulation by lipopolysaccharide (hereinafter LPS), a gram-negative bacterial endotoxin, produce various […], in particular human TNF-α. Inhibition of the activation of PBMC can therefore be measured by the level of suppression of the production of TNF-α by PBMC in response to stimulation by LPS. Inhibition measurement was performed as follows: PBMC were isolated from heparinized peripheral blood by density gradient centrifugation over Lymphoprep (commercially available from Nycomed, Norway). LPS was then added to the PMBC suspension in complete medium (10^6 cells/ml) at a final concentration of 1 μg/ml. The pteridine derivative to be tested was added at different concentrations (0.1 μM, 1 μM and 10 μM) and the cells were incubated at 37° C. for 72 hours in 5% CO2. The supernatants were collected, then TNF-α concentrations were measured with respectively an anti-TNF-α antibody in a sandwich ELISA (Duo Set ELISA human TNFα, commercially available from R&D Systems, United Kingdom). The colorimetric reading of the ELISA was measured by a Multiskan RC plate reader (commercially available from ThermoLabsystems, Finland) at 450 nm (reference wavelength: 690 nm). Data analysis was performed with Ascent software 2.6. (also from ThermoLabsystems, Finland): a standard curve (recombinant human TNFα) was drawn and the amount (pg/ml) of each sample on the standard curve was determined. The % suppression of human TNFα production by the pyrido[3,2-d]pyrimidine derivatives of the invention was calculated using the formula: [formula]
# [3] = 50% suppression of the MLR, [3H]-thymidine incorporation, read-out: MLR
# [4] = Homo sapiens, RPMI-1788, 50% suppression of the MLR, [3H]-thymidine incorporation, read-out: MLR
# [5] = Homo sapiens, RPMI-1788, MLR assay of example 319, read-out: MLR IC50
smiles,measurement,setting,value
"COc1ccc(-c2ccc3ncnc(N4CCN(CCOc5ccccc5)CC4)c3n2)cc1OC [Example 5, 4-[(2-phenoxyethyl)-piperazin-1-yl]-6-(3,4-dimethoxyphenyl)-pyrido[3,2-d]pyrimidine]",IC50,[1]; [3],0.1 µM
same,IC50,[2],0.65 µM
COc1ccc(-c2ccc3nc(N(C)C)nc(N4CCN(C(=O)Nc5cccc(C)c5)CC4)c3n2)cc1OC [Example 15],IC50,[1]; [3],0.4 µM
same,IC50,[2],3.3 µM
COc1ccc(-c2ccc3nc(OC(C)CN4CCCC4)nc(N4CCN(C(=O)Nc5cccc(C)c5)CC4)c3n2)cc1OC (stereo not drawn) [Example 17],IC50,[1]; [3],2.7 µM
same,IC50,[2],5.2 µM
"COc1ccc(-c2ccc3nc(N)nc(OCCOc4ccccc4)c3n2)cc1OC [Example 25, 2-amino-4-(2-phenoxyethoxy)-6-(3,4-dimethoxyphenyl)-pyrido[3,2-d]pyrimidine]",IC50,[1]; [4],0.3 µM
same,IC50,"[2]; Homo sapiens, PBMC",0.7 µM
"COc1ccc(-c2ccc3nc(N)nc(Nc4ccc5c(c4)OCO5)c3n2)cc1OC [Example 28, 2-amino-4-[3,4-(methylenedioxy)aniline]-6-(3,4-dimethoxyphenyl)pyrido[3,2-d]pyrimidine]",IC50,[1]; [3],0.7 µM
same,IC50,[2],0.8 µM
"COc1ccc(-c2ccc3nc(N)nc(Nc4cccc(Br)c4)c3n2)cc1OC [Example 29, 2-amino-4-(3-bromo-anilino)-6-(3,4-dimethoxyphenyl)pyrido[3,2-d]-pyrimidine]",IC50,[1]; [4],0.7 µM
same,IC50,"[2]; Homo sapiens, PBMC",0.8 µM
"COc1ccc(-c2ccc3nc(N)nc(N4CCN(C)CC4)c3n2)cc1OC [Example 31, 2-amino-4-(N-methyl-piperazino)-6-(3,4-dimethoxyphenyl)-pyrido[3,2-d]pyrimidine]",IC50,[1]; [4],0.9 µM
same,IC50,"[2]; Homo sapiens, PBMC",0.8 µM
"COc1ccc(-c2ccc3nc(N)nc(N4CCN(CC(=O)NCCc5ccccc5)CC4)c3n2)cc1OC [Example 270, 2-amino-4-[4-(N-2-phenylethylacetamid-2-yl)piperazin-1-yl]-6-(3,4-dimethoxyphenyl)-pyrido[3,2-d]pyrimidine]",IC50,"[2]; Homo sapiens, PBMC",0.3 µM
"COc1ccc(-c2ccc3nc(N)nc(NCCC(=O)N4CCN(C(C)=O)CC4)c3n2)cc1OC [Example 272, 2-amino-4-[3-(4-acetylpiperazin-1-yl)-propan-3-one-1-yl-amino]-6-(3,4-dimethoxyphenyl)-pyrido[3,2-d]pyrimidine]",IC50,"[2]; Homo sapiens, PBMC",0.7 µM
"COc1ccc(-c2ccc3nc(N)nc(N4CCN(CC(=O)N5CCCC5)CC4)c3n2)cc1OC [Example 273, 2-amino-4-(N-pyrrolidinyl-acetamid-2-yl-piperazin-1-yl)-6-(3,4-dimethoxyphenyl)pyrido[3,2-d]pyrimidine]",IC50,"[2]; Homo sapiens, PBMC",0.08 µM
"COc1ccc(-c2ccc3nc(N)nc(N4CCN(CC(=O)Nc5ccccn5)CC4)c3n2)cc1OC [Example 274, 2-amino-4-(N-pyridinylacetamid-2-yl-piperazin-1-yl)-6-(3,4-dimethoxyphenyl)-pyrido[3,2-d]pyrimidine]",IC50,"[2]; Homo sapiens, PBMC",0.08 µM
"COc1ccc(-c2ccc3nc(N)nc(N4CCN(CC(=O)N5CCOCC5)CC4)c3c2)cc1OC [Example 275, 2-amino-4-[N-(piperazino)-acetyl-morpholino]-6-(3,4-dimethoxyphenyl)-pyrido[3,2-d]pyrimidine]",IC50,"[2]; Homo sapiens, PBMC",0.097 µM
"COc1ccc(-c2ccc3nc(N)nc(NCC(=O)N4CCN(C)CC4)c3n2)cc1OC [Example 276, 2-amino-4-[2-amino-1-(4-methyl-piperazin-1-yl)-ethanone]-6-(3,4-dimethoxyphenyl)-pyrido[3,2-d]pyrimidine]",IC50,"[2]; Homo sapiens, PBMC",0.6 µM
"Cc1cccc(NC(=O)N2CCN(c3ncnc4ccc(-c5ccc(F)cc5)nc34)CC2)c1 [Example 558, 4-[(3-methylphenylcarbamoyl)-piperazin-1-yl]-6-(4-fluorophenyl)pyrido[3,2-d]pyrimidine]",IC50,[1]; [5],0.039 µM
"CCOc1ccc(-c2ccc3ncnc(N4CCN(C(=O)Nc5cccc(C)c5)CC4)c3n2)cc1F [Example 559, 4-[(3-methylphenylcarbamoyl)-piperazin-1-yl]-6-(3-fluoro-4-ethoxyphenyl)pyrido[3,2-d]pyrimidine]",IC50,[1]; [5],0.178 µM
"CCOc1ccc(-c2ccc3ncnc(N4CCN(C(=O)Nc5cccc(C)c5)CC4)c3n2)cc1Cl [Example 560, 4-[(3-methylphenylcarbamoyl)-piperazin-1-yl]-6-(3-chloro-4-ethoxyphenyl)pyrido[3,2-d]pyrimidine]",IC50,[1]; [5],0.38 µM
"Cc1cccc(NC(=O)N2CCN(c3ncnc4ccc(-c5cc(F)c(F)c(F)c5)nc34)CC2)c1 [Example 561, 4-[(3-methylphenylcarbamoyl)-piperazin-1-yl]-6-(3,4,5-trifluorophenyl)pyrido[3,2-d]pyrimidine]",IC50,[1]; [5],0.42 µM
"Cc1cccc(NC(=O)N2CCN(c3ncnc4ccc(-c5cccs5)nc34)CC2)c1 [Example 562, 4-[(3-methylphenylcarbamoyl)-piperazin-1-yl]-6-(2-thienyl)pyrido[3,2-d]pyrimidine]",IC50,[1]; [5],0.053 µM
"Cc1cccc(NC(=O)N2CCN(c3ncnc4ccc(-c5ccco5)nc34)CC2)c1 [Example 563, 4-[(3-methylphenylcarbamoyl)-piperazin-1-yl]-6-(2-furanyl)pyrido[3,2-d]pyrimidine]",IC50,[1]; [5],0.036 µM
"CC(C)(C)OC(=O)N1CCN(c2nc(Cl)nc3ccc(-c4ccc(F)cc4)nc23)CC1 [Example 566, 2-chloro-6-(4-fluorophenyl)-4-(4-Boc-piperazino)pyrido[3,2-d]pyrimidine]",IC50,[1]; [5],> 10 µM
"CC(C)(C)OC(=O)N1CCN(c2nc(N3CCCC3)nc3ccc(-c4ccc(F)cc4)nc23)CC1 [Example 567, 6-(4-fluorophenyl)-4-(4-Boc-piperazino)-2-pyrrolidino-pyrido[3,2-d]pyrimidine]",IC50,[1]; [5],> 10 µM
"CC(C)(C)OC(=O)N1CCN(c2nc(NC3CCCC3)nc3ccc(-c4ccc(F)cc4)nc23)CC1 [Example 568, 2-cyclopentylamino-6-(4-fluorophenyl)-4-(4-Boc-piperazino)-pyrido[3,2-d]pyrimidine]",IC50,[1]; [5],6.5 µM
"CNc1nc(N2CCN(C(=O)OC(C)(C)C)CC2)c2nc(-c3ccc(F)cc3)ccc2n1 [Example 569, 2-methylamino-6-(4-fluorophenyl)-4-(4-Boc-piperazino)-pyrido[3,2-d]pyrimidine and 2,4-dimethylamino-6-(4-fluorophenyl)pyrido[3,2-d]pyrimidine]",IC50,[1]; [5],5.9 µM
"Cc1cccc(NC(=O)N2CCN(c3nc(NC4CCCC4)nc4ccc(-c5ccc(F)cc5)nc34)CC2)c1 [Example 571, 2-cyclopentylamino-6-(4-fluorophenyl)-4-[(3-methylphenylcarbamoyl)-piperazin-1-yl]-pyrido[3,2-d]pyrimidine]",IC50,[1]; [5],0.5 µM
"O=C(COc1ccc(Cl)cc1)N1CCN(c2nc(NC3CCCC3)nc3ccc(-c4ccc(F)cc4)nc23)CC1 [Example 573, 2-cyclopentylamino-6-(4-fluorophenyl)-4-[N-(4-chlorophenoxyacetyl)-piperazin-1-yl]-pyrido[3,2-d]pyrimidine]",IC50,[1]; [5],8 µM
"CNc1nc(N2CCN(C(=O)COc3ccc(Cl)cc3)CC2)c2nc(-c3ccc(F)cc3)ccc2n1 [Example 574, 2-methylamino-4-[N-(4-chlorophenoxyacetyl)-piperazin-1-yl]-6-(4-fluorophenyl)-pyrido[3,2-d]pyrimidine]",IC50,[1]; [5],0.336 µM
"CC(C)(C)OC(=O)N[C@@H]1CCN(c2nc(N)nc3ccc(-c4ccc(F)cc4)nc23)C1 [Example 575, 2-amino-4-[(R)-3-Boc-amino-pyrrolidin-1-yl]-6-(4-fluorophenyl)-pyrido(3,2-d)pyrimidine]",IC50,[1]; [5],> 10 µM
"CC(C)(C)OC(=O)N[C@H]1CCN(c2nc(N)nc3ccc(-c4ccc(F)cc4)nc23)C1 [Example 576, 2-amino-4-[(S)-3-Boc-amino-pyrrolidin-1-yl]-6-(4-fluorophenyl)-pyrido(3,2-d)pyrimidine]",IC50,[1]; [5],4.2 µM
"CC(C)(C)OC(=O)N1CCC(Nc2nc(N)nc3ccc(-c4ccc(F)cc4)nc23)C1 [Example 577, 2-amino-4-[(S)-1-Boc-amino-pyrrolidin-3-yl]-6-(4-fluorophenyl)-pyrido(3,2-d)pyrimidine]",IC50,[1]; [5],4.4 µM
Cc1cccc(NC(=O)N[C@H]2CCN(c3nc(N)nc4ccc(-c5ccc(F)cc5)nc34)C2)c1 [Example 578],IC50,[1]; [5],> 10 µM
Cc1cccc(NC(=O)N[C@@H]2CCN(c3nc(N)nc4ccc(-c5ccc(F)cc5)nc34)C2)c1 [Example 579],IC50,[1]; [5],> 10 µM
"Cc1cccc(NC(=O)N2CCC(Nc3nc(N)nc4ccc(-c5ccc(F)cc5)nc34)C2)c1 [Example 580, 2-amino-4-[1-(3-methylphenylcarbamoyl)-(S)-amino-pyrrolidin-3-yl]-6-(4-fluorophenyl)-pyrido(3,2-d)pyrimidine]",IC50,[1]; [5],0.3 µM
